# Test results published in article PMC8347709 (International Journal of Molecular Sciences, 2021).
# Where “and” joins values, the source holds several entries; their conditions need not be identical. Equal values may be shown once.
# How the values were obtained:
# [1] = target: T1, CB2R in rat spleen tissue (Rattus norvegicus, UniProt Q9QZN9); assay: in vitro autoradiography on rat spleen cryosections; conditions: 10 µm cryosections, female SPRD rats; nonspecific binding with GW405833
# T1 construct: from tissue; host or cells: rat spleen cryosections (female SPRD rat)
# T1 sequence (Q9QZN9 1-360): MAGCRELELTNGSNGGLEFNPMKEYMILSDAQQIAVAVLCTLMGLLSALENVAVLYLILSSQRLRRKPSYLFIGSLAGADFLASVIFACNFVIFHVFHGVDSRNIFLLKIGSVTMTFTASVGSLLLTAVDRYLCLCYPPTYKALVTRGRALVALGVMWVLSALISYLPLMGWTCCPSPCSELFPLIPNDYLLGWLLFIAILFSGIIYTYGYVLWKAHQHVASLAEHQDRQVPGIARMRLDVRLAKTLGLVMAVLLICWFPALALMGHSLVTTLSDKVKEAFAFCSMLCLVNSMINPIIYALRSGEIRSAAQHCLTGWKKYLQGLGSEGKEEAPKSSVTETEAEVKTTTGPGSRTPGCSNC
# Procedure: The in vitro autoradiographic experiments were performed according to a previously published protocol. […] Afterwards, the samples were washed, exposed to imaging plates (Fuji Photo Film, Co. Ltd., Tokyo, Japan), and eventually scanned using a HD-CR 35 scanner (raytest Isotopenmessgeraete GmbH, Straubenhardt, Germany). The scan data were visualised and processed by computer-assisted microdensitometry (Aida version 2.31, raytest Isotopenmessgeräte GmbH, Straubenhardt, Germany).
# Figure S1. […] Cryosections (10 µm;
# (nonspecific binding; (B) for 60 min. […]
# [2] = quantification of radiometabolites in vivo; conditions: female CD-1 mice, 30 min p.i.
# Procedure: Radiochemical yield, radiochemical purity and analyses of plasma and brain samples were assessed via reversed-phase HPLC (RP-HPLC) in gradient mode (0–10 min: 10% MeCN/20 mM NH4OAcaq., 10–30 min: 10%→90% MeCN/20 mM NH4OAcaq., 30–35 min: 90% MeCN/20 mM NH4OAcaq., 35–36 min: 90%→10% MeCN/20 mM NH4OAcaq. 36–45 min: 10% MeCN/20 mM NH4OAcaq.).
# At 30 min p.i., the animals were anaesthetised and blood was withdrawn by retrobulbar bleeding using glass capillaries. Immediately afterwards, the animals were euthanised by cervical dislocation, and released urine was sampled. Blood plasma was obtained from the whole blood sample by centrifugation (2 min, 8000 rpm, room temperature). In addition, the brain and spleen were isolated and homogenised in 1 mL demineralised water on ice (1000 rpm, 10 strokes; glass vessel, PTFE plunger; Potter S, B. Braun Biotech International, Göttingen, Germany).
# The samples were further processed for subsequent radio-chromatographic analyses. Two consecutive extractions were performed as duplicates for plasma and brain determinations. Plasma, brain and spleen samples were added to an ice-cold MeOH/H2O mixture (9:1, v/v). The samples were vortexed for 3 min, incubated on ice for 5 min and centrifuged at 10,000 rpm for 5 min. Supernatants were collected, and the precipitates were re-dissolved in 100 µL of extraction solvent, and the extraction procedure was repeated. The activities of supernatants and precipitates were measured in a γ-counter (1480 WIZARD, Fa. Perkin Elmer, Turku, Finland), and the extraction efficiencies were calculated as the ratio of radioactivity in the supernatant to the radioactivity in the original sample (supernatant + precipitate). The supernatants from both extractions were combined, concentrated at 70 °C under argon stream up to a remaining volume of 100 µL, and subsequently analysed by analytical radio-HPLC with a gradient system (see quality control section).
smiles,measurement,setting,value
C[C@H]1CC[C@@H](NC(=O)c2cc3cccnc3n(CCCC[18F])c2=O)CC1 [[^18F]LU14],specific binding in spleen autoradiography,[1],no or low specific binding
same,intact tracer in spleen (of the total activity detected),[2],50 ± 10%
same,intact tracer in the brain,[2],82 ± 5% and > 80% and 82%
same,unchanged tracer in plasma,[2]; radio-HPLC,17 ± 2% and 17%
